Tests used:
Type in all cases: cell-based, human
hOS = experiment: Cell viability via GUAVA, fold change vs cells plated; conditions: two day treatment
Procedure: (§1) Old media was first removed and 3 ml of fresh media added. IMBR1 and rabbit IgG were added to achieve desired dosage. PD166866 (Sigma-Aldrich, USA) and SU5402 (Merck, Germany) were dissolved in dimethyl sulfoxide (DMSO; Sigma-Aldrich, USA) and added to master mix of media to achieve desired concentration. Additional DMSO was added such that total volume of chemicals added was constant.
(§2) Cells were grown in 24-well plate with 500 μl of media at a seeding density of 20,000 cells/cm^2, except for MDA-MB-468 which were seeded at a density of 100,000 cells/cm^2. Each well of cells were then collected via trypsinization with 200 μl of trypsin-EDTA (Invitrogen, USA) and neutralized with 200 μl of media. 1 μl of GUAVA Viacount Flex dye (Guava Technologies, USA) was added to each well. Quantification of viable cells were performed as per manufacturer's instructions.
(§3) To determine the effect of inhibiting FGFR1 signaling on cell viability in osteosarcoma cells, Saos-2 and hOS were treated with varying concentrations of FGFR tyrosine kinase inhibitors PD166866 (Panek et al., 1998) and SU5402 (Mohammadi et al, 1997). The control groups of respective cell lines were treated with equivalent volume of DMSO, as DMSO is the vehicle for both chemical inhibitors. Cell viability was measured via GUAVA and fold change calculated to compare changes in number of cells after two day treatment and number of cells plated. A fold change greater than one indicated an increase in number of cells while a fold change less than one indicated a decrease in number of cells compared to number of cells plated.

Saos-2 = experiment: as above; conditions: two day treatment
Procedure: as §1, §2, §3
To determine the effect of IMBR1 on cell viability, GUAVA was performed after two day treatment with varying amount of IMBR1 or rabbit IgG as control. Rabbit IgG was used as control as IMBR1 is raised in rabbit. Half maximal inhibitory constant (IC50) was then determined.

MG63 cells [1] = experiment: Cell growth, viable cell count by GUAVA Viacount; conditions: 48 hours; for repression of cell growth: 50 μM
Procedure: The cells were seeded in triplicates at 20,000 cells/cm^2 in 24-well plates, except MDA-MB468 which was plated at 100,000 cells/cm^2. […] 48 hours after treatment, the viable cell numbers were counted using the GUAVA Viacount Program and used to plot the graph (FIG. 6). The ‘starting’ cell numbers which were seeded for the assay were also included. hFOB is the normal cell control for osteosarcoma cells, while MCF10A is the normal cell control for breast cancer cells.
We tested the effectiveness of these reagents to block the growth of MG63 using GUAVA Viacount system.
The effect of these antibodies on the growth of MG63 cells were examined by GUAVA EasyCyte flow cytometry system.
Rabbit IgG and mouse IgG were the vehicle control for IMB-R1 and IMB-R1 mAbs, respectively. The viable cells were counted by GUAVA Viacount system. The statistics was done by Student's t test.

MG63 cells [2] = experiment: FGF2 stimulated MG63 cell growth (GUAVA)
Procedure: MG63 cells were treated with 20 ng/ml FGF2, IMB-R1 (1:250 dilution), or pretreated with IMB-R11 hour before addition of FGF2. Cells without the above treatments were the control. After 2 days, the viable cell numbers were counted using GUAVA system as mentioned before.
Cells were first treated with increasing doses of U0126 for 48 hours. The viable cell numbers were then analysed by GUAVA system. Next, cells were treated with 20 ng/ml FGF2 in the presence or absence of the optimal dose of U0126 determined from the first assay, before the cell counting was performed.

MG63 cells [3] = experiment: Annexin V-FITC / PI staining apoptosis assay
Procedure: Thus we treated MG63 with 1:250 dilution of IMB-R1 or equal volume of rabbit IgG for 24 hours and then stained the cells with Annexin V-FITC and Propidium Iodide (PI) (BD Biosciences). Annexin V binds to phosphatidylserine which is only present on the outer layer of cell membrane at the early stage of apoptosis. Therefore positive staining of Annexin V indicates early apoptosis. PI is unable to penetrate the intact cell membrane. Only when the membrane breaks down at the late stage of apoptosis, PI can enter and stain the cell. After staining, the cell population was analyzed by BD FACS Array system. The viable cells were negative of either Annexin V-FITC or PI staining, which was shown in Q3; the early apoptotic cells were positive of Annexin V-FITC but negative of PI staining, which was shown in Q4; the late apoptotic or dead cells were positive of both staining, which was shown in Q2. The percentage of positive cells in each population was plotted in the graphs.
We next examined whether FGF2 regulated cell apoptosis and IMB-R1 blocked its effect. MG63 cells were treated with IMB-R1 (1:250) 1 hour before FGF2 (20 ng/ml). 24 hours later, cells were harvested and stained with Annexin-PI. Thereafter, cells were analysed by flow cytometry (FIG. 11B). […]
Cells were treated with 25 μM U0126 for 24 hours before the apoptosis of the cells was analysed by Annexin-PI staining.

Caspase 3 = Caspase 3 activity assay (Biovision kit) in MG63; conditions: 24 hours
Procedure: We further examined the effect of IMB-R1 on Caspase 3 activity using an assay kit from Biovision. Caspase 3 is activated at the early stage of apoptosis, so it is used as a common marker of apoptosis. Staurosporine, known as the inducer of caspase 3 activity, was used in this assay as the positive control. We first treated MG63 cells with increasing dose of staurosporine for 24 hours to determine the working dose.
We next examined whether FGF2 regulated cell apoptosis and IMB-R1 blocked its effect. MG63 cells were treated with IMB-R1 (1:250) 1 hour before FGF2 (20 ng/ml). 24 hours later, cells were harvested and stained with Annexin-PI. Thereafter, cells were analysed by flow cytometry (FIG. 11B). The percentage of positive cells in each population was plotted in the graphs (FIG. 11C). We further examined the effect of IMB-R1 and FGF2 on Caspase 3 activity using the assay kit from Biovision. Caspase 3 is activated at the early stage of apoptosis, so it is used as a common marker of apoptosis. The dose of reagents and the time point chosen were same to those in Annexin-PI staining assay.

Compound | fold change of cell number vs cells plated (hOS; 10 μM) | fold change of cell number vs cells plated (hOS; 100 μM) | fold change of cell number vs cells plated (Saos-2; 10 μM) | fold change of cell number vs cells plated (Saos-2; 100 μM) | repression of cell growth (MG63 cells [1]) | other results
COc1cc(OC)cc(-c2cc3cnc(N)nc3nc2NC(=O)NC(C)(C)C)c1 [PD166866] | 4.2 | 0.7 | 1.7 | 0.4 | ~50% | 
CCN(CC)CCCCNc1ncc2cc(-c3cc(OC)cc(OC)c3)c(NC(=O)NC(C)(C)C)nc2n1 [PD173074] |  |  |  |  |  | IC50 (MG63 cells [1]; Homo sapiens, MG-63, read-out: concentration able to induce 50% cell growth inhibition): 10 to 25 µM
Cc1c[nH]c(/C=C2\C(=O)Nc3ccccc32)c1CCC(=O)O [SU5402] | 5.2 | 0.6 | 2.14 | 0.9 | ~50% | 
N#CC(=C(/N)Sc1ccccc1N)/C(C#N)=C(\N)Sc1ccccc1N [U0126] |  |  |  |  |  | FGF2 stimulated cell growth (MG63 cells [2]; 25 μM U0126, 20 ng/ml FGF2): completely suppressed; cell apoptosis (MG63 cells [3]; 25 μM, 24 hours (control 7.49%)): ~100%; viability at 25 µM (MG63 cells [3]; Homo sapiens, MG-63, 24 h, read-out: viable cells): < 1%; cell number relative to cells without treatment (MG63 cells [1]; 25 μM): ~50%
CN[C@@H]1C[C@H]2O[C@@](C)([C@@H]1OC)n1c3ccccc3c3c4c(c5c6ccccc6n2c5c31)C(=O)NC4 [staurosporine] |  |  |  |  |  | Caspase 3 activation (Caspase 3; 15 nM): sufficient to activate Caspase 3
FGF2: recombinant human FGF2 (R&D Systems), FGF ligand that activates FGFR1 signalling |  |  |  |  |  | increase of cell proliferation (MG63 cells [2]; 20 ng/ml FGF2, 2 days): 1.9 folds; caspase 3 activity (Caspase 3; FGF2 20 ng/ml alone): slightly decreased

— patent publication US9333257B2, “FGFR1 antibodies and treatment of cancer” (Agency for Science, Technology and Research, priority 2011, dated 2016)
